This note sets out measurements from patent US20250382344A1, “Soluble GLP1/GIP/NPY2 Receptor Triple Agonists” (Boehringer Ingelheim International GmH, priority 2024, published 2025).

Like-named read-outs stand apart in the source and are kept apart here. *1 amine or outer side, *2 acyl side, *3 side chain or, on linkers, in order; H or OH if unused. Where a SMILES comes first, the peptide text is derived from it. Side-chain parts run from the residue outwards. [ ]: non-standard residue; d: D form. The star is where a group is joined. Argψ(CH2NH)TyrNH2 = N=C(N)NCCC[C@@H](CN[C@@H](Cc1ccc(O)cc1)C(N)=O)N*; C20 diacid = O=C(O)CCCCCCCCCCCCCCCCCCC(=O)*; γGlu = O=C(O)[C@H](CCC(=O)[*:2])N[*:1]; εLys = N[C@@H](CCCCN[*:1])C(=O)[*:2]; Aib = CC(C)(N)C(=O)O

One series addresses T1, hGLP1R (Homo sapiens, UniProt P43220).
T1 construct: expressed in transfected cells; host or cells: HEK-293 CRE-luciferase reporter cells
In words: hGLP1R CreLuc assay in 0.5% and 100% plasma (HEK-293 CRE-luciferase reporter cells). The class given is cell-based. Conditions: HEK-293 reporter cells. (In general: A reporter such as luciferase makes a cellular process visible.)

In the next series the target is T2, hGIPR (Homo sapiens, UniProt P48546).
T2 construct: expressed in transfected cells; host or cells: CHO CRE-luciferase reporter cells
T2 sequence (P48546 22-466): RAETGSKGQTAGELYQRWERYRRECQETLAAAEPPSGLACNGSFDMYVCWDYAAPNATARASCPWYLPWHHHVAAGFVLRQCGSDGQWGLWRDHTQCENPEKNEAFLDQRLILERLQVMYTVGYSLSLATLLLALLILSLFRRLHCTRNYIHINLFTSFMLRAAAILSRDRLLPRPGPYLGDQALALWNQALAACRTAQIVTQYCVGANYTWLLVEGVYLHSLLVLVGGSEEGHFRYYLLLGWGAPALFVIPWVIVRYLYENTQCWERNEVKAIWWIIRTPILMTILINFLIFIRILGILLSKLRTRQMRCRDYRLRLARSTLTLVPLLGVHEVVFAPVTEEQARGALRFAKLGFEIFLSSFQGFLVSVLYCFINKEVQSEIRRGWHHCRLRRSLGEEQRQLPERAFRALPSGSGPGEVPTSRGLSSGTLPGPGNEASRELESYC
The series can be described thus: hGIPR CreLuc assay in 0.5% and 100% plasma (CHO CRE-luciferase reporter cells). The series is classed as cell-based.

For another series, the target named is T3, hNPY2R (Homo sapiens, UniProt P49146).
T3 construct: expressed in transfected cells; host or cells: HEK-293 CRE-luciferase reporter cells
T3 sequence (P49146 1-381): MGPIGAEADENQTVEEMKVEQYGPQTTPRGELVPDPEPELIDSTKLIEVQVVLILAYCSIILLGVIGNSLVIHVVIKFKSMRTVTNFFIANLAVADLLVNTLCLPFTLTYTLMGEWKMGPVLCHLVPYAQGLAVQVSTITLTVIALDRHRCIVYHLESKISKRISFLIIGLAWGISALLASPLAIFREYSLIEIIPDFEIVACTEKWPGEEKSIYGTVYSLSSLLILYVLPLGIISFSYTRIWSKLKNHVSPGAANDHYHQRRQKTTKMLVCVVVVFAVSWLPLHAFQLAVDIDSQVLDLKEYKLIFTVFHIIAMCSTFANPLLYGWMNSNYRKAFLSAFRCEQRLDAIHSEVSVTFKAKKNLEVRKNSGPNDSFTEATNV
In words: hNPY2R CreLuc assay in 0.5% and 100% plasma (HEK-293 CRE-luciferase reporter cells). Conditions: HEK-293 reporter cells. The series is classed as cell-based.

Series [1] is described as follows: Solubility in 0.1 M phosphate buffer at pH 7. The class given is physicochemical. Conditions: 0.1 M phosphate buffer at pH 7, 10 mg/mL final peptide concentration, shaking 2 hours at room temperature, peptides as TFA-salts; measured sample pH 6.5-7.0.
Where [2] appears, read: 0.5% human plasma, read-out: hGIPR 0.5% hP.
Where [3] appears, read: 0.5% human plasma, read-out: hNPY2R 0.5% hP.

T1 sequence (P43220 24-463): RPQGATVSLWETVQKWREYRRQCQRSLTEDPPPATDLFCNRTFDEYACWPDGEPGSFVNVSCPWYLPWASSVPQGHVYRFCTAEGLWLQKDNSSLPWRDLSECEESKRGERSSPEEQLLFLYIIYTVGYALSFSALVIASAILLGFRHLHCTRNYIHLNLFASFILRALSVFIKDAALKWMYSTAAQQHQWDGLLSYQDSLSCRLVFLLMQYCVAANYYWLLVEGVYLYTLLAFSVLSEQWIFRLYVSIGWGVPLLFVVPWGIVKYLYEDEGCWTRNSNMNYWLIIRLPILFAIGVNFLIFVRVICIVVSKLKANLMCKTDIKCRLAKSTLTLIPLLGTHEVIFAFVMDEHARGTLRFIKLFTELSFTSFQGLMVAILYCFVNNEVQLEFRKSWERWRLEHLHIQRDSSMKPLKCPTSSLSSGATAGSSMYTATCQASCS

For the compound `CC[C@H](C)[C@H](NC(=O)[C@H](CC(C)C)NC(=O)[C@H](Cc1c[nH]cn1)NC(=O)[C@H](CCCNC(=N)N)NC(=O)[C@@H](NC(=O)[C@H](Cc1ccccc1)NC(=O)[C@H](C)NC(=O)C(C)(C)NC(=O)[C@H](CCC(N)=O)NC(=O)[C@H](C)NC(=O)[C@H](CCC(N)=O)NC(=O)[C@H](CCCCN)NC(=O)[C@H](CC(=O)O)NC(=O)[C@H](CC(C)C)NC(=O)C(C)(C)NC(=O)[C@@H](NC(=O)[C@H](CO)NC(=O)[C@H](Cc1ccc(O)cc1)NC(=O)[C@H](CC(=O)O)NC(=O)[C@H](CO)NC(=O)[C@@H](NC(=O)[C@H](Cc1ccccc1)NC(=O)[C@@H](NC(=O)CNC(=O)[C@H](CCC(=O)O)NC(=O)C(C)(C)NC(=O)[C@@H](N)Cc1ccc(O)cc1)[C@@H](C)O)[C@@H](C)O)[C@@H](C)CC)C(C)C)C(=O)N[C@@H](CC(N)=O)C(=O)N[C@@H](CCCCNC(=O)[C@@H](N)CCCCNC(=O)CC[C@H](NC(=O)CC[C@H](NC(=O)CC[C@H](NC(=O)CC[C@H](NC(=O)CC[C@H](NC(=O)CC[C@H](NC(=O)CC[C@H](NC(=O)CCCCCCCCCCCCCCCCCCC(=O)O)C(=O)O)C(=O)O)C(=O)O)C(=O)O)C(=O)O)C(=O)O)C(=O)O)C(=O)NC(C)(C)C(=O)N[C@H](C(=O)N[C@@H](CCCNC(=N)N)C(=O)N[C@@H](CCC(N)=O)C(=O)N[C@@H](CCCNC(=N)N)CN[C@@H](Cc1ccc(O)cc1)C(N)=O)[C@@H](C)O` [Compound 16, Y-Aib-E-G-T-F-T-S-D-Y-S-I-Aib-L-D-K-Q-A-Q-Aib-A-F-V-R-H-L-I-N-K(1,3)-Aib-T-R-Q-dOR-Y-NH2.C20DA-gGlu-gGlu-gGlu-gGlu-gGlu-gGlu-gGlu-eLys(1,2)] (H-Y[Aib]EGTFTSDYSI[Aib]LDKQAQ[Aib]AFVRHLINK([εLys-γGlu-γGlu-γGlu-γGlu-γGlu-γGlu-γGlu-C20 diacid])[Aib]TRQ-{Argψ(CH2NH)TyrNH2}), the EC50 at hGLP1R (0.5% human plasma, read-out: hGLP1R 0.5% hP) was 0.7 nM; on hGLP1R (100% human plasma, read-out: hGLP1R 100% hP), 1.8 nM; at hGIPR (setting [2]) it was 0.5 nM; at hGIPR (100% human plasma, read-out: hGIPR 100% hP) it was 2 nM; at hNPY2R (setting [3]), 6.4 nM.

Take `CC[C@H](C)[C@H](NC(=O)[C@H](CC(C)C)NC(=O)[C@H](Cc1c[nH]cn1)NC(=O)[C@H](CCCNC(=N)N)NC(=O)[C@@H](NC(=O)[C@H](Cc1ccccc1)NC(=O)[C@H](C)NC(=O)[C@H](CCC(=O)O)NC(=O)[C@H](CCC(N)=O)NC(=O)[C@H](C)NC(=O)[C@H](CCC(N)=O)NC(=O)[C@H](CCCCN)NC(=O)[C@H](CCC(=O)O)NC(=O)[C@H](CC(C)C)NC(=O)C(C)(C)NC(=O)[C@@H](NC(=O)[C@H](CO)NC(=O)[C@H](Cc1ccc(O)cc1)NC(=O)[C@H](CC(=O)O)NC(=O)[C@H](CO)NC(=O)[C@@H](NC(=O)[C@H](Cc1ccccc1)NC(=O)[C@@H](NC(=O)CNC(=O)[C@H](CCC(=O)O)NC(=O)C(C)(C)NC(=O)[C@@H](N)Cc1ccc(O)cc1)[C@@H](C)O)[C@@H](C)O)[C@@H](C)CC)C(C)C)C(=O)N[C@@H](CC(N)=O)C(=O)N[C@@H](CCCCNC(=O)[C@@H](N)CCCCNC(=O)CC[C@H](NC(=O)CC[C@H](NC(=O)CC[C@H](NC(=O)CC[C@H](NC(=O)CC[C@H](NC(=O)CC[C@H](NC(=O)CCCCCCCCCCCCCCCCC(=O)O)C(=O)O)C(=O)O)C(=O)O)C(=O)O)C(=O)O)C(=O)O)C(=O)NC(C)(C)C(=O)N[C@H](C(=O)N[C@@H](CCCNC(=N)N)C(=O)N[C@@H](CCC(N)=O)C(=O)N[C@@H](CCCNC(=N)N)C(=O)N[C@@H](Cc1ccc(O)cc1)C(N)=O)[C@@H](C)O` [Compound 170, Y-Aib-E-G-T-F-T-S-D-Y-S-I-Aib-L-E-K-Q-A-Q-E-A-F-V-R-H-L-I-N-K(1,3)-Aib-T-R-Q-R-Y-NH2.C18DA-gGlu-gGlu-gGlu-gGlu-gGlu-gGlu-eLys(1,2)]: the EC50 at hGIPR (setting [2]) came to 0.4 nM; on hNPY2R (setting [3]), 43.8 nM. Besides, the solubility at 2 h in series [1] amounted to 4600 µg/mL.

For the compound `CC[C@H](C)[C@H](NC(=O)[C@H](CC(C)C)NC(=O)[C@H](Cc1c[nH]cn1)NC(=O)[C@H](CCCNC(=N)N)NC(=O)[C@@H](NC(=O)[C@H](Cc1ccccc1)NC(=O)[C@H](C)NC(=O)C(C)(C)NC(=O)[C@H](CCC(N)=O)NC(=O)[C@H](C)NC(=O)[C@H](CCC(N)=O)NC(=O)[C@H](CCCCN)NC(=O)[C@H](CCC(=O)O)NC(=O)[C@H](CC(C)C)NC(=O)C(C)(C)NC(=O)[C@@H](NC(=O)[C@H](CO)NC(=O)[C@H](Cc1ccc(O)cc1)NC(=O)[C@H](CC(=O)O)NC(=O)[C@H](CO)NC(=O)[C@@H](NC(=O)[C@H](Cc1ccccc1)NC(=O)[C@@H](NC(=O)CNC(=O)[C@H](CCC(=O)O)NC(=O)C(C)(C)NC(=O)[C@@H](N)Cc1ccc(O)cc1)[C@@H](C)O)[C@@H](C)O)[C@@H](C)CC)C(C)C)C(=O)N[C@@H](CC(N)=O)C(=O)N[C@@H](CCCCNC(=O)[C@@H](N)CCCCNC(=O)CC[C@H](NC(=O)CC[C@H](NC(=O)CC[C@H](NC(=O)CC[C@H](NC(=O)CC[C@H](NC(=O)CC[C@H](NC(=O)CCCCCCCCCCCCCCCCC(=O)O)C(=O)O)C(=O)O)C(=O)O)C(=O)O)C(=O)O)C(=O)O)C(=O)N[C@@H](Cc1c[nH]c2ccccc12)C(=O)N[C@H](C(=O)N[C@@H](CCCNC(=N)N)C(=O)N[C@@H](CCC(N)=O)C(=O)N[C@@H](CCCNC(=N)N)C(=O)N[C@@H](Cc1ccc(O)cc1)C(N)=O)[C@@H](C)O` [Compound 172, Y-Aib-E-G-T-F-T-S-D-Y-S-I-Aib-L-E-K-Q-A-Q-Aib-A-F-V-R-H-L-I-N-K(1,3)-W-T-R-Q-R-Y-NH2.C18DA-gGlu-gGlu-gGlu-gGlu-gGlu-gGlu-eLys(1,2)], the EC50 worked out at 1.7 nM on hGIPR (setting [2]) and 136 nM at hNPY2R (100% human plasma, read-out: hNPY2R 100% hP). In addition, the solubility at 2 h in series [1] stood at 3100 µg/mL.

Consider `CC[C@H](C)[C@H](NC(=O)[C@H](CC(C)C)NC(=O)[C@H](Cc1c[nH]cn1)NC(=O)[C@H](CCCNC(=N)N)NC(=O)[C@@H](NC(=O)[C@H](Cc1ccccc1)NC(=O)[C@H](C)NC(=O)C(C)(C)NC(=O)[C@H](CCC(N)=O)NC(=O)[C@H](C)NC(=O)[C@H](CCC(N)=O)NC(=O)[C@H](CCCCN)NC(=O)[C@H](CCC(=O)O)NC(=O)[C@H](CC(C)C)NC(=O)C(C)(C)NC(=O)[C@@H](NC(=O)[C@H](CO)NC(=O)[C@H](Cc1ccc(O)cc1)NC(=O)[C@H](CC(=O)O)NC(=O)[C@H](CO)NC(=O)[C@@H](NC(=O)[C@H](Cc1ccccc1)NC(=O)[C@@H](NC(=O)CNC(=O)[C@H](CCC(=O)O)NC(=O)C(C)(C)NC(=O)[C@@H](N)Cc1ccc(O)cc1)[C@@H](C)O)[C@@H](C)O)[C@@H](C)CC)C(C)C)C(=O)N[C@@H](CC(N)=O)C(=O)N[C@@H](CCCCNC(=O)CC[C@H](NC(=O)CC[C@H](NC(=O)CC[C@H](NC(=O)CC[C@H](NC(=O)CC[C@H](NC(=O)CCCCCCCCCCCCCCCCCCC(=O)O)C(=O)O)C(=O)O)C(=O)O)C(=O)O)C(=O)O)C(=O)NC(C)(C)C(=O)N[C@H](C(=O)N[C@@H](CCCNC(=N)N)C(=O)N[C@@H](CCC(N)=O)C(=O)N[C@@H](CCCNC(=N)N)C(=O)N[C@@H](Cc1ccc(O)cc1)C(N)=O)[C@@H](C)O` [Compound 176, Y-Aib-E-G-T-F-T-S-D-Y-S-I-Aib-L-E-K-Q-A-Q-Aib-A-F-V-R-H-L-I-N-K(1,3)-Aib-T-R-Q-R-Y-NH2.C20DA-gGlu-gGlu-gGlu-gGlu-gGlu(1,2)], for which the EC50 at hGIPR (setting [2]) was 0.6 nM; at hNPY2R (setting [3]), 32.8 nM. The solubility at 2 h in series [1] came to 5300 µg/mL.

For orientation: solubility means how much of the substance goes into solution per volume.
